Usually IC50 stands for the point on the concentration scale where inhibition reaches its midpoint.

16 compounds from US20260216151A1, “GPR65 MODULATORS” (Pathios Therapeutics Limited, priority 2023, published 2026) can be followed below.

Where only a bound is given, the exact number is not on record here.

This test deals with T1, human recombinant GPR65 (Homo sapiens, UniProt Q8IYL9).
T1 construct: host or cells: 1321N1 human astrocytoma cells (1321N1-hrGPR65)
T1 sequence (Q8IYL9 whole entry): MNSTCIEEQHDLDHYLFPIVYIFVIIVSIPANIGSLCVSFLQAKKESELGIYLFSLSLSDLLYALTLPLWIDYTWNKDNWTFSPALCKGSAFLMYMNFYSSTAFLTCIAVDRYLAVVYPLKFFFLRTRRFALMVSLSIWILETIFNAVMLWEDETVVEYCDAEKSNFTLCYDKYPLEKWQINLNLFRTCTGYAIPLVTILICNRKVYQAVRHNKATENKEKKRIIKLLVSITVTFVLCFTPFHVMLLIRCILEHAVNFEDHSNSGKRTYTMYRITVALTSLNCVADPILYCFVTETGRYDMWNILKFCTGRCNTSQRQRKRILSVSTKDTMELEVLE
As to the kind of experiment: Human GPR65 cAMP HTRF antagonist assay. The note with it: 1321N1-hrGPR65 cells, assay pH 7.2, cAMP HTRF; read-out: hGPR65 IC50. The format is cell-based. Here is the method: Human GPR65 Cyclic Adenosine Monophosphate (cAMP) Homogeneous Time Resolved Fluorescence (HTRF) Antagonist Assay Procedure
IC50 data was obtained by the following procedure:
1321N1 human astrocytoma cells stably expressing human recombinant GPR65 (1321N1-hrGPR65 cells, EuroscreenFast) were cultured according to the vendor's instructions.
Compounds were tested for their ability to antagonise GPR65, through measuring the concentration of cytoplasmic cAMP following treatment of the cells at a pH of 7.2 to activate GPR65 signalling and addition of the compound to be tested. The extent to which the expected rise in cAMP concentration upon GPR65 activation was suppressed by the added compound is indicative of its potency. The assay was carried out according to EuroscreenFast assay Methodology as follows.
On the day of the assay, test compounds were added to 384-well, low volume, white microtiter plates by acoustic dispensing. KRH buffer (5 mM KCl, 1.25 mM MgSO4, 124 mM NaCl, 25 mM HEPES, 13.3 mM Glucose, 1.25 mM KH2PO4 and 1.45 mM CaCl2) was adjusted to pH 6.5, pH 7.6 and pH 8.4 by adding NaOH. 1321N1-hGPR65 cells were rapidly thawed and diluted in KRH, pH 7.6 prior to centrifugation at 300×g for 5 min and resuspension in assay buffer (KRH, pH 7.6, supplemented with 1 mM 3-isobutyl-1-methylxanthine (IBMX) and 200 μM ethylenediaminetetraacetic acid (EDTA)). Cells were added to assay plates at a density of 2,000 cells per well in a volume of 5 μl. Assay plates were briefly centrifuged at 100×g and then incubated at room temperature for 30 min. Cells were stimulated by the addition of 5 μL KRH, pH 6.5, to achieve an assay pH of 7.2, while control wells received 5 μl KRH, pH 8.4 to achieve an assay pH of 7.9. Assay plates were briefly centrifuged at 100×g and then incubated at room temperature for 30 min.
Accumulation of cAMP was detected by cAMP HTRF kit (Cisbio). d2-labeled cAMP and cryptate-labeled anti-cAMP antibody in Lysis and Detection Buffer (Cisbio) were added to assay plates, and the plates were incubated at room temperature for 1 h. HTRF measurements were performed using a Pherastar FSX instrument. Acceptor and donor emission signals were measured at 665 nm and 620 nm, respectively, and HTRF ratios were calculated as signal665 nm/signal620 nm×10^4. Data were normalised to high and low control values and fitted with 4-parameter logistic regression to determine hGPR65 IC50 values for the test compounds, which are shown in Table 1.
A general note: TR-FRET usually uses a lanthanide donor and a delayed reading to cut background.
Regarding `O=C(Nc1cc(Cl)c(-c2ccc3nonc3c2)cc1F)N1CCc2cc(=O)[nH]nc2C1` [Compound 13, N-(4-(Benzo[c][1,2,5]oxadiazol-5-yl)-5-chloro-2-fluorophenyl)-3-oxo-2,5,6,8-tetrahydropyrido[3,4-c]pyridazine-7(3H)-carboxamide], the IC50 is less than 500 nM.

Take `O=C(Nc1cc(Cl)c(-c2ccc3nonc3c2)cc1F)N1CCc2cc(=O)[nH]cc2C1` [Compound 1, N-(4-(Benzo[c][1,2,5]oxadiazol-5-yl)-5-chloro-2-fluorophenyl)-6-oxo-3,4,6,7-tetrahydro-2,7-naphthyridine-2(1H)-carboxamide]: the IC50 is less than 500 nM. Regarding `O=C(Nc1cc(Cl)c(-c2cc3nonc3cc2F)cc1F)N1CCc2cc(=O)[nH]cc2C1` [Compound 8, N-(5-Chloro-2-fluoro-4-(6-fluorobenzo[c][1,2,5]oxadiazol-5-yl)phenyl)-6-oxo-3,4,6,7-tetrahydro-2,7-naphthyridine-2(1H)-carboxamide], the IC50 was less than 500 nM.

As for `CC(C)COc1ccc(-c2cc(F)c(NC(=O)N3CCc4cc(=O)[nH]cc4C3)cc2Cl)cn1` [Compound 9, N-(5-Chloro-2-fluoro-4-(6-isobutoxypyridin-3-yl)phenyl)-6-oxo-3,4,6,7-tetrahydro-2,7-naphthyridine-2(1H)-carboxamide], the IC50 was less than 500 nM. For `O=C(Nc1cc(Cl)c(-c2cnc3nonc3c2)cc1F)N1CCc2cc(=O)[nH]cc2C1` [Compound 4, N-(4-([1,2,5]Oxadiazolo[3,4-b]pyridin-6-yl)-5-chloro-2-fluorophenyl)-6-oxo-3,4,6,7-tetrahydro-2,7-naphthyridine-2(1H)-carboxamide], the IC50 was in the range of 500 to 5000 nM. For the compound `O=C(Nc1cc(Cl)c(-c2cnc(OCC(F)(F)F)c(F)c2)cc1F)N1CCc2cc(=O)[nH]cc2C1` [Compound 10, N-(5-Chloro-2-fluoro-4-(5-fluoro-6-(2,2,2-trifluoroethoxy)pyridin-3-yl)phenyl)-6-oxo-3,4,6,7-tetrahydro-2,7-naphthyridine-2(1H)-carboxamide], the IC50 was less than 500 nM.

Turning to `O=C(Nc1cc(Cl)c(-c2ccnc(OCC(F)(F)F)c2)cc1F)N1CCc2cc(=O)[nH]cc2C1` [Compound 11, N-(5-Chloro-2-fluoro-4-(2-(2,2,2-trifluoroethoxy)pyridin-4-yl)phenyl)-6-oxo-3,4,6,7-tetrahydro-2,7-naphthyridine-2(1H)-carboxamide], the IC50 is less than 500 nM. As to `O=C(Nc1cc(Cl)c(-c2cnc3nonc3c2)cc1F)N1CCc2c(ccnc2F)C1` [Compound 5, N-(4-([1,2,5]Oxadiazolo[3,4-b]pyridin-6-yl)-5-chloro-2-fluorophenyl)-5-fluoro-3,4-dihydro-2,6-naphthyridine-2(1H)-carboxamide], the IC50 was less than 500 nM. For `O=C(Nc1cc(Cl)c(-c2ccc(F)nc2)cc1OCc1ccccc1)N1CCc2cc(=O)[nH]cc2C1` [Compound 16, N-(2-(Benzyloxy)-5-chloro-4-(6-fluoropyridin-3-yl)phenyl)-6-oxo-3,4,6,7-tetrahydro-2,7-naphthyridine-2(1H)-carboxamide], the IC50 was more than 5000 nM. The figure for `O=C(Nc1cc(Cl)c(-c2ccc(OCC(F)(F)F)nc2)cc1F)N1CCc2cc(=O)[nH]cc2C1` [Compound 6, N-(5-Chloro-2-fluoro-4-(6-(2,2,2-trifluoroethoxy)pyridin-3-yl)phenyl)-6-oxo-3,4,6,7-tetrahydro-2,7-naphthyridine-2(1H)-carboxamide] is less than 500 nM.

Take `O=C(Nc1cc(Cl)c(-c2ccc(F)nc2)cc1F)N1CCc2cc(=O)[nH]cc2C1` [Compound 3, N-(5-chloro-2-fluoro-4-(6-fluoropyridin-3-yl)phenyl)-6-oxo-3,4,6,7-tetrahydro-2,7-naphthyridine-2(1H)-carboxamide]: the IC50 is 500 to 5000 nM. On to `COc1ccc(-c2cc(F)c(NC(=O)N3CCc4cc(=O)[nH]cc4C3)cc2Cl)cn1` [Compound 2, N-(5-Chloro-2-fluoro-4-(6-methoxypyridin-3-yl)phenyl)-6-oxo-3,4,6,7-tetrahydro-2,7-naphthyridine-2(1H)-carboxamide], for which the IC50 was less than 500 nM.

Turning to `Cc1cc(-c2ccc(OCC(F)(F)F)nc2)c(Cl)cc1NC(=O)N1CCc2cc(=O)[nH]cc2C1` [Compound 15, N-(5-Chloro-2-methyl-4-(6-(2,2,2-trifluoroethoxy)pyridin-3-yl)phenyl)-6-oxo-3,4,6,7-tetrahydro-2,7-naphthyridine-2(1H)-carboxamide], the IC50 fell in the range of 500 to 5000 nM.

Regarding `O=C(Nc1cc(Cl)c(-c2ccc(OCC(F)(F)F)nc2)cc1F)N1CCc2cc(=O)[nH]nc2C1` [Compound 12, N-(5-Chloro-2-fluoro-4-(6-(2,2,2-trifluoroethoxy)pyridin-3-yl)phenyl)-3-oxo-2,5,6,8-tetrahydropyrido[3,4-c]pyridazine-7(3H)-carboxamide], the IC50 is less than 500 nM. Then `O=C(Nc1cc(Cl)c(-c2cc(F)c3nonc3c2)cc1F)N1CCc2cc(=O)[nH]cc2C1` [Compound 7, N-(5-Chloro-2-fluoro-4-(7-fluorobenzo[c][1,2,5]oxadiazol-5-yl)phenyl)-6-oxo-3,4,6,7-tetrahydro-2,7-naphthyridine-2(1H)-carboxamide], with less than 500 nM; and `COc1cc(-c2ccc(OCC(F)(F)F)nc2)c(Cl)cc1NC(=O)N1CCc2cc(=O)[nH]cc2C1` [Compound 14, N-(5-chloro-2-methoxy-4-(6-(2,2,2-trifluoroethoxy)pyridin-3-yl)phenyl)-6-oxo-3,4,6,7-tetrahydro-2,7-naphthyridine-2(1H)-carboxamide], with 500 to 5000 nM.
